From US8937063B2 (Trustees of Tufts College, priority 2010, dated 2015)

Columns and labels:
healthy adult volunteers = assay: Human clinical trial, single escalating oral doses: triglycerides; type: in vivo; settings: preliminary, FIG. 22
Description: A randomized, double-blind, placebo-controlled study is performed with sequential escalating doses by cohort with observations for 30 hours post dosing and return visit on 8th day. Study subjects are healthy male and female adult volunteers, age 18-60 years, with LDL-C>130 mg/dL and weight <85 kg. Subjects are randomly assigned to receive study drug or placebo.
Five periods of single dose escalation, with 8 subjects per cohort (6 drug: 2 placebo) involve a total 40 subjects. Appropriately blinded matching placebos are provided. Cohort 1 receives 500 mg of ARI-001 formulated as a single oral tablet, plus eleven placebo tablets; Cohort 2, 1000 mg taken as two 500 mg tablets of ARI-001, plus ten placebo tablets; Cohort 3, 2000 mg taken as four 500 mg tablets of ARI-001, plus eight placebo tablets; Cohort 4, 4000 mg taken as eight 500 mg tablets of ARI-001, plus four placebo tablets; Corhort 5, 6000 mg taken as twelve 500 mg tablets of ARI-001. Placebo-only subjects take twelve placebo tablets. Each tablet is a compressed, film-coated tablet suitable for oral administration. […]

[1] = Human clinical trial, single oral doses: serum concentration; type: in vivo; settings: serum, ARI-001 2000 mg single oral dose, preliminary, read-out: Cmax, serum
Description: Five periods of single dose escalation, with 8 subjects per cohort (6 drug: 2 placebo) involve a total 40 subjects. Appropriately blinded matching placebos are provided. Cohort 1 receives 500 mg of ARI-001 formulated as a single oral tablet, plus eleven placebo tablets; Cohort 2, […] of ARI-001, plus ten placebo tablets; Cohort 3, […] of ARI-001, plus eight placebo tablets; Cohort 4, […] of ARI-001, plus four placebo tablets; Corhort 5, […] of ARI-001. Placebo-only subjects take twelve placebo tablets. Each tablet is a compressed, film-coated tablet suitable for oral administration.
Pharmacokinetic samples are collected at 0-45 min pre-dose and at 0.5, 1, 1.5, 2, 4, 6, 8, 12, 24, 30 and 168 hours after dosing. […]
[…] […] Analysis of all samples is performed at a central laboratory.

[2] = tested on: high fat+fructose (HF/HS) diet hamsters; assay: 18-day oral dosing lipid study in HF/HS hamsters; type: in vivo, male Golden Syrian hamsters
Description: We examined the effects of diet modulation on the lipid profile of male Syrian Golden hamsters. Hamsters were ordered from Charles River Labs (Wilmington, Mass.), and requested to be 111-120 g in weight (correspondingly 56-61 days old). Hamsters were kept in cages of 4-5 per cage, and maintained on a standard light cycle of 12 hours on/12 hours off. All diets were obtained from Dyets, Inc. (Bethlehem, Pa.). “Normal Diet” was a standard rodent chow, catalog #5001, produced into pellets. Water and this standard chow diet were available to this group of hamsters ad libitum. Food was added to cages as needed, but no less frequently than twice per week. “High Fat Diet” was the same standard rodent chow supplemented with the following: 11.5% corn oil, 11.5% coconut oil, 0.5% cholesterol, and 0.25% deoxycholate. This is also available directly from Dyets, Inc., as catalog #611201. Both diets were ordered in 10 kg batches and stored at 4° C. for durations of the experiments (4-8 weeks), and at −20° C. for longer storage (up to six months). Water and this high fat diet were available to this group of hamsters ad libitum. The “High Fat+Fructose” group was fed the same fat-supplemented chow as the “high fat diet” group (#611201), but water was supplemented with fructose to a final concentration of 10%. Fructose was supplied from Now Foods (catalog #6931) and distributed by Lucky Vitamin (catalog #WB48432). Fructose water was prepared by adding 400 g of fructose to 4 L of water and stirring at room temperature until dissolved. Fructose water was stored at 4° C. until use. When provided to hamsters, fructose water was kept in a water bottle in the hamster cages at room temperature, exactly as standard water was. Fructose water and high fat chow were provided to this group of hamsters ad libitum. All animals remained on their respective diets for 21 days.
To begin this experiment, hamsters were randomly assigned to groups defined by the diet modifications above. After a fixed time, blood was collected from hamsters (N=3-4) to determine the lipid contents of the plasma. Because of limitations in the ability to adequately collect blood from hamsters, all blood samples were obtained via a terminal cardiac puncture preceded by asphyxiation with carbon dioxide. Blood (approximately 2 mL volume) was collected with a 22 G needle into a 5 mL syringe and transferred to a K2EDTA tube. The samples were kept on ice until centrifugation (14,000 rpm for 10 minutes at 4° C.) to separate plasma. Plasma was then aliquoted to tubes for storage at −80° C. until analysis.
Lipid parameters were determined using commercially available kits from Wako USA (Richmond, Va.) according to manufacturer's directions.
Male Golden Syrian hamsters were purchased from Charles River Labs (111-120 g, 56-61 days) and acclimated to a high fat+fructose (herein, referred to as “HF/HS”) diet as described above for two weeks. Hamsters were assigned into cohorts by body weight after two weeks' acclimation to the diet. […] Hamsters were dosed once per day for a total of 18 days. All animals remained on the above-described HF/HS diet throughout the dosing period. Dosing solutions for each cohort were prepared for 7 days at a time, although enough was prepared to last for 8 days. Each solution was stored at room temperature between administrations. Cohorts were defined according to Table 2 below.

mice = assay: Doppler capillary blood flow (flush proxy) in mice; type: in vivo; settings: Doppler capillary blood flow measurements
[3] = ARI-001 2240 mg/kg oral once daily 18 days, plasma, mean ± SD
[4] = ARI-001 2240 mg/kg vs molar equivalent niacin 1200 mg/kg, 18 days

Cmax [1]: ~7500 ng/mL
SMILES: O=C(O)c1ccc(CCN2CCOCC2)nc1 [ARI-001]
change in triglycerides 4 hours after dosing (healthy adult volunteers): dose response for triglyceride lowering
TC (total cholesterol) ([2]; ARI-001 2240 mg/kg (9.75 mmol/kg) oral gavage once daily 18 days, plasma, mean ± SD): 343 ± 104 mg/dL
HDL/TC ([2]; ARI-001 2240 mg/kg oral once daily 18 days, mean ± SD): 0.48 ± 0.07
FFA (free fatty acids) [2, 3]: 0.75 ± 0.15 mEq/L
HDL [2, 3]: 186 ± 74 mg/dL
LDL [2, 3]: 114 ± 33 mg/dL
TG (triglycerides) [2, 3]: 138 ± 80 mg/dL
efficacy relative to niacin, LDL cholesterol parameter [2, 4]: at least 1.67 times
efficacy relative to niacin, total cholesterol parameter [2, 4]: at least 1.54 times
increase of absolute HDL value compared to vehicle ([2]; ARI-001 2240 mg/kg, 18 days): 33%
TC (total cholesterol) ([2]; ARI-001 […] (4.88 mmol/kg) oral gavage once daily 18 days, plasma, mean ± SD): 653 ± 194 mg/dL
capillary vasodilation or hyperemia (a proxy of flush) (mice): no evidence of capillary vasodilation or hyperemia
